This note sets out measurements from patent US8563503B2, “Antibiotic, its nucleotide sequence, methods of construction and uses thereof” (Protein Design Lab. Ltd., priority 2011, dated 2013).

The subject of one assay is Enterococcus. The assay is described as follows: MIC by Agar Doubling Dilution Method, clinical isolates. The assay is classed as cell-based, Enterococcus faecalis. The following applies: Enterococcus clinical strains. The procedure: (§1) (3) Culture Solution • MH Broth Culture Solution: 25 g was added into […] distilled water, heat to dissolve, subpackaged, autoclaved at 116° C. for 20 minutes, and MH Solid Culture Medium, 36 g was added into 1000 ml distilled water, autoclaved at 116° C. for 20 minutes, used for drug sensitive test of Gram-positive and negative aerobic bacteria. • Blood culture solution for Enterococcus faecalis, which was prepared by adding defibration rabbit blood into the MH culture solution by 5-10% and cultured at 37° C. in 5% CO2 for 24 hours. 2. Experimental Methods (1) The Measurement of Minimum Inhibitory Concentration (MIC) • The Minimum Inhibitory Concentration (MIC) of PMC-SA1 was measured by Agar Doubling Dilution Method. The bacterium was inoculated on the surface of agar plate containing different concentration of drugs by multipoint inoculate instrument (Deneley A400). The bacterial content per point was 10^5 CFU/ml. After incubated at 37° C. for 18-24 hours, the result can be observed. The least concentration of drugs in plate culture solution without bacterium growing was Minimum Inhibitory Concentration (MIC) of the drug to the said bacteria. 3. Results

Assay [1] deals with Staphylococcus aureus (MSSA). The description is as above. Format: cell-based. The conditions noted are these: MSSA clinical strains. The procedure:
as §1

Assay [2] deals with Staphylococcus epidermidis (MRSE). The assay is described as above. The assay is classed as cell-based. The following applies: MRSE clinical strains. The procedure: as §1
Assay [3] concerns Staphylococcus epidermidis (MSSE strain). The description is as above. The conditions noted are these: MSSE clinical strains. The assay is classed as cell-based. The procedure:
as §1

In assay [4] the test system is methicillin-resistant Staphylococcus aureus ATCC BAA-42. Description: Bacteria growth curve (A595 nm), comparison of the novel antibiotics. The assay is classed as cell-based. The conditions noted are these: drug 5 μg/ml, 37° C., A595 nm per hour. The procedure:
The following experiment was set for comparing bacteriostasis effects of 6 kinds of the novel antibiotics. The experimental bacteriaum was United States Standard Strain methicillin-resistant Staphylococcus aureus ATCC BAA-42. 5 microliter of bacteria solution (10^6 CFU/ml level bacterium amount) was added into 10 ml culture solution containing 1% peptone, 1% NaCl, 0.5% yeast extract, 0.5% glucose and 0.1% K2HPO4, total of 8 groups were prepared. The first group as control was added 0.3 M NaCl+50 mM boric acid buffer fluid by the same volume as that of antibiosis polypeptide liquid added in any experimental groups, the second group was added penicillin G sodium by 5 μg/ml, PMC-SA1, PMC-SA2, PMC-SA3, PMC-SA4, PMC-SE and PMC-PA were added in the other experimental groups with preservative fluid being 0.3 M NaCl+50 mM boric acid buffer fluid by 5 ug/ml.
The solution of above groups was put into 100 ml conical flask, 200 rpm, grew at 37° C. 100 μl was sampled per hour, and added onto 96-pore ELISA plate and measured bacteria grown cloudiness by spectrophotometer (A595 nm) color comparison. The bacteria growth curve was drawn up to compare the bacteriostasis efficacy of antibiosis polypeptide.

For assay [5], the system named is methicillin-resistant Staphylococcus aureus (ATCC BAA-42). The assay is described as follows: Transmission electron microscope observation of bactericidal effect. Format: cell-based. The following applies: oxacillin 500 μg/ml, […]. The procedure:
Transmission Electron Microscope Observations of the Bactericidal Effect of the Novel Antibiotic PMC-SA1 on Methicillin-Resistant Staphylococcus aureus (ATCC BAA-42) (Dyed by 1% Phospho-Wolframic Acid, Magnified by 25,000 Fold)
Culture solution: 1% tryptone, 1% NaCl, 0.5% yeast extract, 0.5% glucose, 0.1% K2HPO4.
Con: control group, the bacterium was added to the above culture solution and proper amount of 0.3 M NaCl+50 mM boric acid buffer solution, 200 rpm, grew at 37° C. for 2 hours, and the bacterial appearance was still regular;
PMC: the bacterium was added to the above culture solution with 10 μg/ml PMC-SA1 for 0.5 hours.

In assay [6] the test system is Pseudomonas aeruginosa Standard Strain (ATCC 27853). The assay is described as follows: Bacteria growth curve (A595 nm cloudiness), Pseudomonas aeruginosa. The assay is classed as cell-based. The conditions noted are these: drug 5 μg/ml, 37° C., A595 nm per hour. The procedure:
The experimental bacterium was Pseudomonas aeruginosa Standard Strain (ATCC 27853) purchased from the Center for General Microorganism of the Administration (CGMCC). 5 microliter bacteria solution (10^6 CFU/ml level bacterium amount) was added into 10 ml MH culture solution. Seven groups are prepared. 0.3 M NaCl+50 mM boric acid buffer fluid which amount was identical to amount of antibiosis polypeptide liquid in the experimental group was added as control in the first group, 5 μg/ml wild-type colicin Ia was added in the second group, 5 μg/ml PMC-SA1 was added in the third group, and 5 μg/ml PMC-PA was added in the fourth group.
Liquid in the above groups was put into 100 ml conical flask, 200 rpm, grew at 37° C. 100 μl was sampled per hour, and added onto 96-hole Elisa Plate to measure bacteria grown cloudiness by spectrophotometer (A595 nm) color comparison. The bacteria growth curve was drawn up to compare the bacteriostasis efficacy of antibiosis polypeptide.

Assay [7] concerns Multiple-drug resistance Pseudomonas aeruginosa (clinical separated strain 13280). Description: In vivo protection of mice infected by multiple-drug resistance Pseudomonas aeruginosa. Also on record: species or system Kungming mice. The following applies: 5 mg/kg intravenous, fatal dose i.p. An excerpt:
(1) Drugs • PMC-PA, piperacillin, amikacin, ceftazidime, levofloxacin.
Multiple-drug resistance Pseudomonas aeruginosa (clinical separated strain 13280, isolated by laboratory bacteria room of West China Hospital)
Kungming mice (n=60), half male and half female, weighing 15-20 g were given intraperitoneal injection of multiple-drug resistance Pseudomonas aeruginosa, therein PMC-PA, piperacillin, amikacin, ceftazidime and levofloxacin experimental group were set respectively as 10 mice per group, while the control group was set as 10 mice per group. After given intraperitoneal injection of fatal dose of the bacterium, the mice in drug experimental groups respectively were given an intravenous injection of one kind of above drugs, the results were observed per 24 hours for continuous 10 days. The positive result was mouse's death.

As a reminder, the MIC50 is the lowest concentration that inhibits either 50% of growth or 50% of the strains tested, depending on the study. In general, MIC90 refers to an inhibitory concentration at the 90% level, which refers to growth in some studies and to a panel of isolates in others. A higher MIC90 goes with weaker potency.

With `Cc1onc(-c2ccccc2)c1C(=O)N[C@@H]1C(=O)N2[C@@H]1SC(C)(C)[C@@H]2C(=O)[O-].[Na+]` [Oxacillin, Oxacillin Sodium], the MIC50 was 16 µg/mL with Enterococcus, 0.125 µg/mL in assay [1], 64 µg/mL in assay [2] and 0.03 µg/mL in assay [3]. In addition, the MIC90 in assay [1] and in assay [3] was 0.125 µg/mL throughout. For the same molecule, the entries for the “Scope of MIC” value in assay [1] and in assay [3] were <0.015-0.25 ^ mg/L and <0.125-0.25 ^ mg/L, respectively. Besides, the “bacteriostasis effect on growth of methicillin-resistant Staphylococcus aureus (bacteria growth curve)” value in assay [4] is reported as “can hardly be restrained”. Also, the “bactericidal effect, bacterial appearance under transmission electron microscope” value was “the colour as well as appearance of the bacterium had changed, but the thallus was still integrated” in assay [5] and “the appearance of bacterium had changed, but thallus were still integrative” in assay [5] (listed as oxacillin).

B1: wild-type colicin Ia: wild-type bacterial toxin colicin Ia secreted by E. coli (protein, UniProt P06716 1-626, looked up)
Colicin-Ia: MSDPVRITNPGAESLGYDSDGHEIMAVDIYVNPPRVDVFHGTPPAWSSFGNKTIWGGNEWVDDSPTRSDIEKRDKEITAYKNTLSAQQKENENKRTEAGKRLSAAIAAREKDENTLKTLRAGNADAADITRQEFRLLQAELREYGFRTEIAGYDALRLHTESRMLFADADSLRISPREARSLIEQAEKRQKDAQNADKKAADMLAEYERRKGILDTRLSELEKNGGAALAVLDAQQARLLGQQTRNDRAISEARNKLSSVTESLNTARNALTRAEQQLTQQKNTPDGKTIVSPEKFPGRSSTNHSIVVSGDPRFAGTIKITTSAVIDNRANLNYLLSHSGLDYKRNILNDRNPVVTEDVEGDKKIYNAEVAEWDKLRQRLLDARNKITSAESAVNSARNNLSARTNEQKHANDALNALLKEKENIRNQLSGINQKIAEEKRKQDELKATKDAINFTTEFLKSVSEKYGAKAEQLAREMAGQAKGKKIRNVEEALKTYEKYRADINKKINAKDRAAIAAALESVKLSDISSNLNRFSRGLGYAGKFTSLADWITEFGKAVRTENWRPLFVKTETIIAGNAATALVALVFSILTGSALGIIGYGLLMAVTGALIDESLVEKANKFWGI
B1: the “growth of Pseudomonas aeruginosa (bacteria growth curve)” value in assay [6] is on record as “can not be effectively restrained”.

B2: PMC-PA: Staphylococcus aureus pheromone AgrD I connected to N-terminus of allosteric colicin Ia′; SEQ ID NO. 23; plasmid pBHC-PA (protein)
chain: YSTCDFIMSDPVRITNPAAESLGYDSDGREIMGVDIYLNPPRVDVFKGTPPAWSSFGNKTIWGGNEWVDDSPTRSDIEKRDKEITAYKNTLSAQQKENENKRTEAGKRLSAAIAAREKDENTLKTLRAGNADAADITRQEFRLLQAELREYGFRTEIAGYDALRLHTESRMLFADADSLRISPREARSLIEQAEKRQKDAQNADKKAADMLAEYERRKGILDTRLSELEKNGGAALAVLDAQQARLLGQQTRNDRAISEARNKLSSVTESLNTARNALTRAEQQLTQQKNTPDGKTIVSPEKFPGRSSTNHSIVVSGDPRFAGTIKITTSAVIDNRANLNYLLSHSGLDYKRNILNDRNPVVTEDVEGDKKIYNAEVAEWDKLRQRLLDARNKITSAESAVNSARNNLSARTNEQKHANDALNALLKEKENIRNQLSGINQKIAEEKRKQDELKATKDAINFTTEFLKSVSEKYGAKAEQLAREMAGQAKGKKIRNVEEALKTYEKYRADINKKINAKDRAAIAAALESVKLSDISSNLNRFSRGLGYAGKFTSLADWITEFGKAVRTENWRPLFVKTETIIAGNAATALVALVFSILTGSALGIIGYGLLMAVTGALIDESLVEKANKFWGI
modifications: The peptide of PMC-SA
notes: Staphylococcus aureus pheromone AgrD I connected to N-terminus of allosteric colicin Ia′; 23; plasmid pBHC-PA
Regarding B2, the “growth of Pseudomonas aeruginosa (bacteria growth curve)” value is given as “completely restrained” in assay [6] and “has antibacterial effect on Pseudomonas aeruginosa” in assay [6] (listed as SEQ ID NO. 23). The “bacteriostasis effect on growth of methicillin-resistant Staphylococcus aureus (bacteria growth curve)” value in assay [4] is “the worst”. Also, the “survival rate of mice in 10 days” value in assay [7] is given as 100%.
